According to PMC3068151 (PLoS ONE, 2011):

Legend:
[1] = tested on: PC3, HT29 and T47D cells; assay: MTT cell viability assay; format: cell-based, human; conditions: concentrations studied in phosphorylation studies; 2 hours incubation
Procedure: Cell viability was evaluated using the MTT colorimetric assay. Cells were plated in 96-well plates at a density of 10^5cells/ml and the day after treated with compounds or 0.5% DMSO for 2, 24, 48, or 72 hours. MTT was added at the final concentration of 1 mg/ml and incubated for 2 hours. The resulting formazan crystals were washed with PBS 100 µl/well and then solubilized with DMSO 200 µl/well. The absorbance was measured at 550 nm using an ELISA plate reader and the results were expressed as the ratio between absorbance of the cell treated with the compounds and untreated cells.
Supplementary file pone.0018128.s003.pdf: Figure S2 Cytotoxicity of bile acids on PC3, HT29 and T47D cells after 2 hours of incubation with the indicated compounds. Data are means±SEM. (PDF) Click here for additional data file.

[2] = target: EGFR (Homo sapiens, UniProt P00533); assay: Phosphorylated-EGFR sandwich ELISA in HT29 cells; format: cell-based; conditions: 100 µM, 10 ng/ml EGF
Chain of EGFR (P00533 25-1210): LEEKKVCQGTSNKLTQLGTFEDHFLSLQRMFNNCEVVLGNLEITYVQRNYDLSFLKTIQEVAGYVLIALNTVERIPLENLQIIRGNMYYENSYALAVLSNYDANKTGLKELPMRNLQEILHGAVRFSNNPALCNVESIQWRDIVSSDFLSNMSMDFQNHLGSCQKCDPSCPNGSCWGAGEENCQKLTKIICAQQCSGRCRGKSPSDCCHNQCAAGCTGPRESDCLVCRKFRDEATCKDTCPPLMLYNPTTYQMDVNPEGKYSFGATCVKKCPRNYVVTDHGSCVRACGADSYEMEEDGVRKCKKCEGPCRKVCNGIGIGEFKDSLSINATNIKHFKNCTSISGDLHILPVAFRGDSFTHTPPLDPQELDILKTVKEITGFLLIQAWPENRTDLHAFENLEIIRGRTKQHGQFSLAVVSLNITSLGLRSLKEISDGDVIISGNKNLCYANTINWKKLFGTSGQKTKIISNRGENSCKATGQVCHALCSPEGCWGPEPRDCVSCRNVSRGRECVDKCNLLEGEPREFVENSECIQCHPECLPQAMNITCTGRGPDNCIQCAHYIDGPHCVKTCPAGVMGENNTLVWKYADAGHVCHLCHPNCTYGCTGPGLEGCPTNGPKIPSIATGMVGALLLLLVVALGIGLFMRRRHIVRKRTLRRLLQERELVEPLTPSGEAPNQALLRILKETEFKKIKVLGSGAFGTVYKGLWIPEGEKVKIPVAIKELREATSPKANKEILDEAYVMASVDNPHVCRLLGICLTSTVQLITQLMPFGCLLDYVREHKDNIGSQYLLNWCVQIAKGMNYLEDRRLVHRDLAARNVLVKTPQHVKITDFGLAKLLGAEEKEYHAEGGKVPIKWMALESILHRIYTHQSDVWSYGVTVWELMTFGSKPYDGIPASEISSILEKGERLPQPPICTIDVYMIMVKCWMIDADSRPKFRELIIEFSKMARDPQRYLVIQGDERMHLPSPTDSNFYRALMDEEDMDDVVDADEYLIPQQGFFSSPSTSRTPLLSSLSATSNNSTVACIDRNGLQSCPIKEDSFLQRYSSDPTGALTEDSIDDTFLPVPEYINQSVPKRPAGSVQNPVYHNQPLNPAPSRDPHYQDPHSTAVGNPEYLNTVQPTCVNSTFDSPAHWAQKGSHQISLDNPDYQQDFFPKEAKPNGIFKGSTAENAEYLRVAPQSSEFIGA
Procedure: (§1) Cells were seeded in 12-well plates at concentration of 10^5cells/ml in complete medium until they reached ∼40% confluence and serum starved overnight. The day after cells were treated with compounds under study, vehicle or standard drug, stimulated with the proper agonist, rinsed with sterile PBS and solubilized in lysis buffer. The lysates were resuspended and rocked at 4°C for 30 minutes and then centrifuged at 14000 xg for 5 minutes. The protein content of supernatant was measured with BCA protein assay kit (Thermo scientific), standardized to 200 µg/ml and transferred into a clean test tube ready to be used.
(§2) EphA2-, EphB4- and EGFR-phosphorylation were measured in cell lysates using DuoSet®IC Sandwich ELISA (RnD Systems, #DYC4056, #DYC4057 and #DYC1095, respectively) following manufacturer's protocol. […] The day after wells were washed and blocked for 1 hour at room temperature. After that, wells were washed and 100 µl/well of lysates were added at room temperature for 2 hours; wells were washed and incubated with Detection Antibody at room temperature for 2 hours.
A, B) EGFR phosphorylation was induced by 30 ng/ml and 10 ng/ml EGF on PC3 (A) and HT29 (B) cells, respectively. […] Data are the means of two experiments ± st. err.

[3] = target: T1, EphB4 (Homo sapiens, UniProt P54760); assay: Phosphorylated-EphB4 sandwich ELISA in T47D cell lysates; format: cell-based; conditions: T47D cells, 3 µg/ml ephrinB2-Fc preclustered with 0.3 µg/ml IgG Fc fragment; read-out: IC50 EphB4 phosphorylation
T1 construct: EphB4 phosphorylation on T47D breast cancer cells; endogenous in cells; host or cells: T47D
T1 sequence (P54760 16-987): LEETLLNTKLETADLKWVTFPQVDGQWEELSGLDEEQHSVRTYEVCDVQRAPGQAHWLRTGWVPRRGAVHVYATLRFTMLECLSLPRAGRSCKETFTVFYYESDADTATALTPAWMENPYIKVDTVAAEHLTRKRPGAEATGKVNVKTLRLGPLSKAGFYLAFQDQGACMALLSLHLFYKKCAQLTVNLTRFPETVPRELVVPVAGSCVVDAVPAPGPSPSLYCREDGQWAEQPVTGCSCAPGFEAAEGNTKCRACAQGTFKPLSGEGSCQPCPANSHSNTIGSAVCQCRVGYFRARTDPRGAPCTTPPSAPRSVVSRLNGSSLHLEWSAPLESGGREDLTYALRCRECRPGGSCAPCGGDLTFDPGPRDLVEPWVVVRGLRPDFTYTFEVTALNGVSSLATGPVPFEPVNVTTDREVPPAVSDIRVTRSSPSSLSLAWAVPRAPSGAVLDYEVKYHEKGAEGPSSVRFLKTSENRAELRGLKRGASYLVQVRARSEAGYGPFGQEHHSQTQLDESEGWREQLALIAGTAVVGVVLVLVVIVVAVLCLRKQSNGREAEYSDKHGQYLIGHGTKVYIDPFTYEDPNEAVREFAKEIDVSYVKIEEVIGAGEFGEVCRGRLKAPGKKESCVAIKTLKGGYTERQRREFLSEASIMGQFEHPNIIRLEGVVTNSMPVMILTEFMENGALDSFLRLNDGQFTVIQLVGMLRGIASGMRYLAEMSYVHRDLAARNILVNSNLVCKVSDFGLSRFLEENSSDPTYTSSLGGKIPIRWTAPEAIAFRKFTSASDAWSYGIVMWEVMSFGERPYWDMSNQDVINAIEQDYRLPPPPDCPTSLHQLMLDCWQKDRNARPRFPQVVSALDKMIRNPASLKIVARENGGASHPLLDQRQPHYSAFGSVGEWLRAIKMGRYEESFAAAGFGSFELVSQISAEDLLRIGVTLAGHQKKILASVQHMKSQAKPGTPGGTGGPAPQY
Procedure: as §1, §2
EphB4 phosphorylation was stimulated with 3 µg/ml ephrinB2-Fc, preclustered with 0.3 µg/ml IgG Fc fragment on T47D cells (G, H, I). […] Phospho-EphA2/B4 levels are relative to ephrinA1/B2-Fc+DMSO. Data are the means of at least three independent experiment ± st. err. […]

C[C@H](CCC(=O)O)[C@H]1CC[C@H]2[C@@H]3CC[C@@H]4C[C@H](O)CC[C@]4(C)[C@H]3CC[C@]12C [LCA, lithocholic acid]
toxicity (MTT) [1]: devoid of any toxicity
effect on EGF-induced EGFR phosphorylation [2]: completely inactive
IC50 [3]: 141 µM
